4 compounds from ChEMBL document CHEMBL4715823, “Homogeneous Assay for Target Engagement Utilizing Bioluminescent Thermal Shift” (ACS Med Chem Lett, 2018) can be followed below.

The target of assay [1] is Mitogen-activated protein kinase 14 (Homo sapiens) (UniProt Q16539). As to conditions: HeLa, dose 50.0 µM.
The target is the same in assay [2]. As to conditions: HeLa, dose 50.0 µM. The source holds these as a separate data set.

Calls of active or inactive are those of the source. No cut-off for these calls is given here.

Chain of Mitogen-activated protein kinase 14 (Homo sapiens) (Q16539 whole entry): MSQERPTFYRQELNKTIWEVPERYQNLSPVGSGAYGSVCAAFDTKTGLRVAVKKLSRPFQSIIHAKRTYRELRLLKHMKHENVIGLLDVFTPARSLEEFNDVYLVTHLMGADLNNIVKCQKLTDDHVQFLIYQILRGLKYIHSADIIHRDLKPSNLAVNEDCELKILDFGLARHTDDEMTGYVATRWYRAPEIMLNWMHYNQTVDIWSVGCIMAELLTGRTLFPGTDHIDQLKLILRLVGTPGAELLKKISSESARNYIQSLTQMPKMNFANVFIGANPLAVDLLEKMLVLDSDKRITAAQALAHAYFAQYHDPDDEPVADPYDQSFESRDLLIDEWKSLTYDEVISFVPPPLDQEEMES

Turning to `C/C(O)=C(\C#N)C(=O)Nc1cc(Br)ccc1Br`, the ΔTm in assay [1] worked out at 3.43 °C.
For `CC(C)(C)n1nc(-c2ccc(Cl)cc2)c2c(N)ncnc21`, in assay [1], the ΔTm turned out to be 1.17 °C.
On to `Oc1ccc(-c2nc(-c3ccc(F)cc3)c(-c3ccncc3)[nH]2)cc1`, for which, in assay [1], the ΔTm is 7.8 °C.
On to `Cc1ncc(-c2ccnc(Nc3ccc(S(C)(=O)=O)cc3)n2)n1C(C)C`, for which the Tm entry in assay [2] was “inactive”.
